Reference: US11235976B2, “Nanocarbon-iron composite system as well as composition, preparation method and use thereof” (Chongqing Lummy Pharmaceutical Co., LTD, priority 2017, dated 2022)

Assays:
Test in all cases: Cell experiment, cell survival rate
Type in all cases: cell-based
Settings in all cases: 48 h
[1] = test system: SKOV3 ovarian cancer cells
Description: (§1) Cells growing in a log phase are collected, the concentration of the cell suspension is adjusted, 100 μL of cell suspension is added to each well and the cells are plated (edge wells are filled with sterile PBS) at a density of 1×10^3-10^4 cells/well. The cells are incubated for 24 hours at 37° C. under the condition of 5% CO2, a nanocarbon-iron solution having a concentration gradient (nanocarbon content: 125, 62.5, 15.63 and 3.91 μg/mL; and ferric ion content: 13.65, 6.83, 1.71 and 0.43 μg/mL) is added, and three sub-wells are set. Then the cells are incubated for 48 hours at 37° C. under the condition of 5% CO2. 10 μL of CCK8 solution is added to each well and then the cells are continuously incubated for 2 hours. The absorbance of each well is measured at OD=450 nm with the microplate reader. In addition, a negative control group, nanocarbon control groups having the same concentration and iron preparation control groups having the same concentration are set.
as §1, with “and 1” for “100”, “of a 6-well plate” for “and the cells are plated (edge wells are filled with sterile PBS)”, “3×10^4” for “1×10^3-10^4”, “1.71,” for “1.71 and”, “The” for “10 μL of CCK8 solution is added to each well and then the”, “trypsinized and counted.” for “continuously incubated for 2 hours. The absorbance of each well is measured at OD=450 nm with the microplate reader.”

[2] = test system: MDA-MB-231 breast cancer cells
Description: as §1
as §1, with “and 1” for “100”, “of a 6-well plate” for “and the cells are plated (edge wells are filled with sterile PBS)”, “3×10^4” for “1×10^3-10^4”, “1.71,” for “1.71 and”, “The” for “10 μL of CCK8 solution is added to each well and then the”, “trypsinized and counted.” for “continuously incubated for 2 hours. The absorbance of each well is measured at OD=450 nm with the microplate reader.”

[3] = test system: A549 lung cancer cells
Description: as §1
as §1, with “and 1” for “100”, “of a 6-well plate” for “and the cells are plated (edge wells are filled with sterile PBS)”, “3×10^4” for “1×10^3-10^4”, “1.71,” for “1.71 and”, “The” for “10 μL of CCK8 solution is added to each well and then the”, “trypsinized and counted.” for “continuously incubated for 2 hours. The absorbance of each well is measured at OD=450 nm with the microplate reader.”

[4] = test system: murine liver cancer H22 cells
Description: as §1
as §1, with “and 1” for “100”, “of a 6-well plate” for “and the cells are plated (edge wells are filled with sterile PBS)”, “3×10^4” for “1×10^3-10^4”, “1.71,” for “1.71 and”, “The” for “10 μL of CCK8 solution is added to each well and then the”, “trypsinized and counted.” for “continuously incubated for 2 hours. The absorbance of each well is measured at OD=450 nm with the microplate reader.”

[5] = test system: TPC-1 thyroid cancer cells
Description: as §1
as §1, with “and 1” for “100”, “of a 6-well plate” for “and the cells are plated (edge wells are filled with sterile PBS)”, “3×10^4” for “1×10^3-10^4”, “1.71,” for “1.71 and”, “The” for “10 μL of CCK8 solution is added to each well and then the”, “trypsinized and counted.” for “continuously incubated for 2 hours. The absorbance of each well is measured at OD=450 nm with the microplate reader.”

[6] = test system: HCT116 colon cancer cells
Description: as §1
as §1, with “and 1” for “100”, “of a 6-well plate” for “and the cells are plated (edge wells are filled with sterile PBS)”, “3×10^4” for “1×10^3-10^4”, “1.71,” for “1.71 and”, “The” for “10 μL of CCK8 solution is added to each well and then the”, “trypsinized and counted.” for “continuously incubated for 2 hours. The absorbance of each well is measured at OD=450 nm with the microplate reader.”

[7] = iron preparation alone 0.43 μg/mL
[8] = iron preparation alone 1.71 μg/mL
[9] = iron preparation alone 6.83 μg/mL
[10] = iron preparation alone 13.65 μg/mL

## ferrous gluconate
[1]; [7]
  Cell Survival Rate: 100%
[1]; [8]
  Cell Survival Rate: 100%
[1]; [9]
  Cell Survival Rate: 96.47%
[1]; [10]
  Cell Survival Rate: 97.11%
[2]; [7]
  Cell Survival Rate: 100%
[2]; [8]
  Cell Survival Rate: 100%
[2]; [9]
  Cell Survival Rate: 100%
[2]; [10]
  Cell Survival Rate: 100%
[3]; [7]
  Cell Survival Rate: 100%
[3]; [8]
  Cell Survival Rate: 100%
[3]; [9]
  Cell Survival Rate: 100%
[3]; [10]
  Cell Survival Rate: 97.31%
[4]; [7]
  Cell Survival Rate: 100%
[4]; [8]
  Cell Survival Rate: 100%
[4]; [9]
  Cell Survival Rate: 100%
[4]; [10]
  Cell Survival Rate: 96.14%
[5]; [7]
  Cell Survival Rate: 100%
[5]; [8]
  Cell Survival Rate: 100%
[5]; [9]
  Cell Survival Rate: 100%
[5]; [10]
  Cell Survival Rate: 98.34%
[6]; [7]
  Cell Survival Rate: 100%
[6]; [8]
  Cell Survival Rate: 100%
[6]; [9]
  Cell Survival Rate: 100%
